Assay results from paper PMC11855827, “High-Throughput Screening of Five Compound Libraries for Anthelmintic Activity and Toxicity Leads to the Discovery of Two Flavonoid Compounds” (International Journal of Molecular Sciences, 2025).
“And” between values parts separate entries of the source, which are not always exact repeats. Equal entries are not always repeated. Structures can show the parent of a compound that is named as a salt. Where two headings read alike, the source gives them in different places.

Test system: C. elegans
[1] = Table S2, C. elegans SS assay, 110 μM, 0 h, averages of 4 data points
[2] = Table S2, C. elegans SS assay, 110 μM, 24 h, averages of 4 data points

Row | Compound | Percentage of motility inhibition 0 h [1] | Percentage of motility inhibition 24 h [2] | Percentage of motility inhibition 0 h (110 µM) [%] | Percentage of motility inhibition 24 h (110 µM) [%]
1 | CO/N=C(\C(=O)N[C@@H]1C(=O)N2C(C(=O)O)=C(C[N+]3(C)CCCC3)CS[C@H]12)c1csc(N)n1.Cl.O.[Cl-] [Cefepime (Dihydrochloride Monohydrate)] | 7% | 1% | – | –
2 | O=c1cc(-c2ccccc2)oc2cc(O)cc(O[C@@H]3O[C@H](CO)[C@@H](O)[C@H](O)[C@H]3O)c12 [Toringin] | 0% | 2% | – | –
3 | CO/N=C(\C(=O)N[C@@H]1C(=O)N2C(C(=O)[O-])=C(CSc3nc(=O)c([O-])nn3C)CS[C@H]12)c1csc(N)n1.CO/N=C(\C(=O)N[C@@H]1C(=O)N2C(C(=O)[O-])=C(CSc3nc(=O)c([O-])nn3C)CS[C@H]12)c1csc(N)n1.O.O.O.O.O.O.O.[Na+].[Na+].[Na+].[Na+] [Ceftriaxone (sodium salt)] | – | – | 25 | 16
4 | CCN(CC)c1nc2c(S(=O)(=O)c3ccc(Cl)cc3)nnn2c2cc(OC)c(OC)cc12 [Targocil] | 21% | 11% | – | –
5 | C[C@@H]1O[C@@H](O[C@H]2[C@H](O)[C@@H](O)[C@H](O[C@H]3CC[C@]4(C)[C@H]5CC=C6[C@@H]7CC(C)(C)CC[C@]7(CO)[C@@H](O)C[C@@]6(C)[C@]5(C)CC[C@H]4C3(C)C)O[C@@H]2CO[C@@H]2O[C@H](CO)[C@@H](O)[C@H](O)[C@H]2O)[C@H](O)[C@H](O)[C@H]1O [Saikosaponin F] | 1% | 0% | – | –
6 | CC(C)=CCC[C@](C)(O[C@@H]1O[C@H](CO)[C@@H](O)[C@H](O)[C@H]1O)[C@H]1CC[C@]2(C)[C@@H]1[C@H](O)C[C@@H]1[C@@]3(C)CC[C@H](O)C(C)(C)[C@@H]3CC[C@]12C [Ginsenoside C-K] | 4% | 22% | – | –
7 | C[C@H]1CC[C@@H]2N(C1)C[C@H]1[C@@H]3C[C@H]4[C@@H](CC(=O)[C@H]5C[C@@H](O)CC[C@@]54C)[C@@H]3CC[C@H]1[C@]2(C)O [Sipeimine] | 0% | 9% | – | –
8 | C/C1=C\C(=O)c2c(C)coc2C/C(C)=C/CC1 [Furanodienone] | 0% | 0% | – | –
9 | N=C(N)c1ccc(OCCCCCOc2ccc(C(=N)N)cc2)cc1.O=S(=O)(O)CCO.O=S(=O)(O)CCO [Pentamidine (isethionate)] | 0% | 0% | – | –
10 | CC[C@H]1OC(=O)[C@H](C)[C@@H](O[C@H]2C[C@@](C)(OC)[C@@H](O)[C@H](C)O2)[C@H](C)[C@@H](O[C@@H]2O[C@H](C)C[C@H](N(C)C)[C@H]2O)[C@](C)(O)C[C@@H](C)CN[C@H](C)[C@@H](O)[C@]1(C)O [Azathramycin] | 11% | 10% | – | –
11 | O=C1CC[C@H](NC(=O)Cc2ccccc2)C(=O)N1 [Antineoplaston A10] | 0% | 0% | – | –
12 | Gypsogenin-3-O-glucuronide | 50% | 10% | – | –
13 | C[C@@H]1O[C@@H](O[C@@H]2[C@H](O)[C@@H](O)[C@H](O[C@H]3CC[C@@]4(C)C(CC[C@]5(C)C4C=C[C@]46OC[C@@]7(CCC(C)(C)CC74)[C@@H](O)C[C@]65C)C3(C)C)O[C@@H]2CO[C@@H]2O[C@H](CO)[C@@H](O)[C@H](O)[C@H]2O)[C@H](O)[C@H](O)[C@H]1O (some centres unmarked) [Saikosaponin C] | 24% | 0% | – | –
14 | N=C(N)NCCC[C@H](N)C(=O)O.N[C@@H](CCC(=O)O)C(=O)O [L-Arginine (L-glutamate)] | 22% | 0% | – | –
15 | Cc1nnc(SCC2=C(C(=O)[O-])N3C(=O)[C@@H](NC(=O)Cn4cnnn4)[C@H]3SC2)s1.[Na+] [Cefazolin (sodium)] | 14% | 0% | – | –
16 | Cl.OC(c1cc(C(F)(F)F)nc2c(C(F)(F)F)cccc12)C1CCCCN1 (centres unmarked) [Mefloquine (hydrochloride)] | 45% | 22% | – | –
17 | COC(=O)N[C@H](C(=O)N1CC2(CC2)C[C@H]1c1nc(-c2ccc3c(c2)C(F)(F)c2cc(-c4ccc5[nH]c([C@@H]6[C@H]7CC[C@H](C7)N6C(=O)[C@@H](NC(=O)OC)C(C)C)nc5c4)ccc2-3)c[nH]1)C(C)C [Ledipasvir (acetone)] | 14% | 4% | – | –
18 | CCC(C)C1NC(=O)C(C)NC1=O (centres unmarked) [Cyclo(Ile‐Ala)] | 16% | 22% | – | –
19 | O.O.O=c1c(O)c(-c2ccc(O)c(O)c2)oc2cc(O)cc(O)c12 [Quercetin (dihydrate)] | 0% | 3% | – | –
20 | Escin | – | 8% and 6% | – | –
21 | CCn1cc(C(=O)[O-])c(=O)c2ccc(C)nc21.[Na+] [Nalidixic acid (sodium salt)] | 0% | 0% | – | –

Row | Compound | Percentage of motility inhibition 0 h [1] | Percentage of motility inhibition 24 h [2] | Percentage of motility inhibition 0 h (110 µM) [%] | Percentage of motility inhibition 24 h (110 µM) [%]
22 | Cl.Cl.Cn1cncc1CCN [3‐Methylhistamine (dihydrochloride)] | 4% | 0% | – | –
23 | C[C@@H]1CC[C@@H]2C(C(=O)O)=CO[C@@H](O[C@@H]3O[C@H](CO)[C@@H](O)[C@H](O)[C@H]3O)[C@H]12 [8-Epideoxyloganic acid] | 2% | 17% | – | –
24 | OC1C[C@H]2CC[C@@H](C1)N2 (some centres unmarked) [Nortropine] | 12% | 11% | – | –
25 | C[C@H](CO[C@@H]1O[C@H](CO)[C@@H](O)[C@H](O)[C@H]1O)[C@H]1CC[C@@]2(CC[C@]3(C)[C@H](CC[C@@H]4[C@@]5(C)CC[C@H](O[C@@H]6O[C@H](CO)[C@@H](O)[C@H](O)[C@H]6O[C@@H]6O[C@H](CO)[C@@H](O)[C@H](O)[C@H]6O)[C@@](C)(CO)[C@@H]5CC[C@]43C)[C@H]2O)CO1 [Hosenkoside B] | 7% | 10% | – | –
26 | CC(=O)c1cc2c(CO)cc(O)cc2oc1=O [Armillarisin A] | 0% | 4% | – | –
27 | COc1cc2c3cc1Oc1c(OC)c(OC)cc4c1[C@@H](Cc1ccc(O)c(c1)Oc1ccc(cc1)C[C@@H]3N(C)CC2)N(C)CC4 [Berbamine (dihydrochloride)] | 33% and 53% | 11% and 15% | – | –
28 | Cl.O[C@H]1[C@H]2c3cc4c(cc3CN3CCC(=C[C@@H]1O)[C@H]23)OCO4 [Lycorine (hydrochloride)] | 15% | 0% | – | –
29 | C=C1C[C@@]2(O)O[C@@]3(C[C@H]2C(C)C)[C@@H](C)CC[C@@H]13 [Curcumol] | 8% | 12% | – | –
30 | COC[C@]12CN(C)[C@@H]3[C@@H]4[C@H](OC)[C@H]1[C@@]3([C@@H](OC)C[C@H]2O)[C@@H]1C[C@@]2(O)[C@H](OC(=O)c3ccccc3)[C@@H]1[C@]4(OC(C)=O)[C@@H](O)[C@@H]2OC [Mesaconitine] | 0% | 3% | – | –
31 | C[C@@H]1CC[C@]2(C(=O)O[C@@H]3O[C@H](CO)[C@@H](O)[C@H](O)[C@H]3O)CC[C@]3(C)C(=CC[C@@H]4[C@@]5(C)CC[C@H](O)[C@](C)(C(=O)O)[C@@H]5CC[C@]43C)[C@@H]2[C@]1(C)O [Ilexsaponin A] | 0% | 12% | – | –
32 | CC1(C)CC[C@]2(C(=O)O[C@@H]3O[C@H](CO)[C@@H](O)[C@H](O)[C@H]3O)CC[C@]3(C)C(=CC[C@@H]4[C@@]5(C)C[C@@H](O)[C@H](O[C@@H]6O[C@H](CO)[C@@H](O)[C@H](O)[C@H]6O)[C@@](C)(CO)[C@@H]5CC[C@]43C)[C@@H]2C1 [Lucyoside B] | 9% | 4% | – | –
33 | O=C1Cc2cc(O)ccc2N1 [5‐Hydroxyoxindole] | 15% | 10% | – | –
34 | Ginkgolide C | 12% | 0% | – | –
35 | Br.CO[C@H]1CC=C2CCN3CCC4=C(CC(=O)OC4)[C@]23C1 [Dihydro‐β‐er ythroidine (hydrobromide)] | 7% | 6% | – | –
36 | C[C@]1(O)C[C@@H](O)[C@@H]2C=CO[C@@H](O[C@@H]3O[C@H](CO)[C@@H](O)[C@H](O)[C@H]3O)[C@@H]21 [Ajugol] | 0% | 2% | – | –
37 | COc1cc2c(cc1OC)-c1c(C)c3ccc(OC)c(OC)c3c[n+]1CC2.[Cl-] [Dehydrocorydaline (chloride)] | 0% | 0% | – | –
38 | O=C(/C=C/c1ccc(O)c(O)c1)OC1(C(=O)O)C[C@@H](O)C(O)[C@H](O)C1 (some centres unmarked) [1‐Caffeoylquinic acid] | 24% | 0% | – | –
39 | CC[C@H]1OC(=O)C[C@@H](O)[C@H](C)[C@@H](O[C@@H]2O[C@H](C)[C@@H](O[C@H]3C[C@@](C)(O)[C@@H](O)[C@H](C)O3)[C@H](N(C)C)[C@H]2O)[C@@H](CC=O)C[C@@H](C)C(=O)/C=C/C(C)=C/[C@@H]1CO[C@@H]1O[C@H](C)[C@@H](O)[C@@H](OC)[C@H]1OC.O=C(O)C(O)C(O)C(=O)O [Tylosin (tartr ate)] | 0% | 1% | – | –
40 | C=C(C(=O)O)[C@@H]1CC[C@@]2(C)CCCC(=C)[C@]2(O)C1 [5α-Hydroxycostic acid] | 13% | 18% | – | –
41 | O=C(O)[C@H]1O[C@@H](Oc2cc(O)c3c(=O)cc(-c4ccc(O)c(O)c4)oc3c2)[C@H](O)[C@@H](O)[C@@H]1O [Luteolin 7‐O‐glucuronide] | 22% | 45% | – | –
42 | CC(CC(=O)CC(C)[C@H]1CC(=O)C2(C)C3=C(C(=O)C(=O)C12C)C1(C)CCC(=O)C(C)(C)[C@@H]1CC3=O)C(=O)O (some centres unmarked) [Ganosporeric acid A] | 36% | 9% | – | –
